Key:
[1] = test system: fibroblasts of tumors produced by lung carcinoma non small cell human (HCC-44) cells; assay: Marker expression (IHC) in fibroblasts of tumor or peritumoral area, mouse model, HCC-44; assay type: in vivo; conditions: HCC-44 tumors in mice, 30 mg/kg/day oral, 7 days
Method: The expression on fibroblast cells obtained in the animal model was analyzed by immunohistochemistry, of the above markers: TGF-α, TGF-β1, TGF-β2, TGF-β3, MMP-7, MMP-1 1, MMP-14MP-14. […] This process was realized in mice treated with non-peptide antagonists of NK1 receptor and in untreated animals (control).

[2] = test system: fibroblasts (PHF) co-cultured with human fibrosarcoma tumor cells (HT-1080); assay: Marker expression (IHC) in PHF co-cultured with HT-1080 tumor cells; assay type: cell-based; conditions: co-culture with HT-1080; SP 1 μM + antagonist 1 μM; 48 h;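 note: cultures grown in fresh human plasma from a healthy donor, six replicates, value is percent of fibroblasts positive for the marker, compared with fibroblasts cultured without tumor cells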
Method: (§1) All cultures were maintained 48 hours, following which the same cells were included in paraffin blocks for subsequent analysis of the expression of different markers by immunohistochemistry (see Example 1). […] All experiments were carried out sixfold. Analyzed markers in fibroblast cells (stromal cells) were: TGF-α, TGF-β1, TGF-β2, TGF-β3, SPARC, MMP-3, MMP-7, MMP-9, MMP-11, MMP-13 and MMP-14.

[3] = test system: fibroblasts of tumors produced by human rhabdomyosarcoma tumor line (A-204); assay: Marker expression (IHC) in fibroblasts of tumor or peritumoral area, mouse model, A-204; assay type: in vivo; conditions: A-204 tumors in mice, 30 mg/kg/day oral, 7 days
Method: In vitro tests conducted in Example 5 are now carried out in an experimental model in mice in vivo. […] Subsequently, the expression in fibroblasts tumoral and peritumoral area of molecular markers associated with progression and maintenance of tumors: TGF-α, TGF-β1, TGF-β2, TGF-β3, MMP-7, MMP-11, MMP-14 were analyzed by immunohistochemistry.
Were injected with 2×10^7 cells tumors (corresponding, in each case to each of the tumor types as specified in Table 9) in 200 of PBS subcutaneously μl. […] Mice were randomized into two groups when the tumors reached a volume of 75 mm^3 One group was treated with non-peptide receptor antagonists NK1 and the other with placebo 200μ1. […] Tumors and samples of non-neoplastic stromal areas remote from the tumor were halved, formalin fixed (4%) and then were included in paraffin blocks for analysis by immunohistochemistry.
The expression on fibroblast cells obtained in the animal model was analyzed by immunohistochemistry, of the above markers: TGF-α, TGF-β1, TGF-β2, TGF-β3, MMP-7, MMP-1 1, MMP-14MP-14. Tables 32 to 35 depict the type of label used and the average percentage of fibroblasts present in non-tumor areas, tumor and peritumoral (±SD) which were expressing the marker shown in each of the tumor types developed from of the different cell lines used. This process was realized in mice treated with non-peptide antagonists of NK1 receptor and in untreated animals (control).

[4] = test system: macrophages in co-culture with cells isolated from primary human tumors; assay: Marker expression (IHC) in macrophages co-cultured with primary human tumor cells (colon, breast, ovarian, lung carcinoma, melanoma); assay type: cell-based; conditions: SP 1 μM + antagonist 1 μM;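 note: macrophages came from pleural or peritoneal washings of the patient who also supplied the tumor cells, and both were co-cultured on fresh blood plasma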
Method: To check that the interaction of tumor cells obtained directly from primary human immune cell/inflammatory (macrophages) cells, obtained from the patient stimulate secretion of substances by these macrophages recognized as important in survival of both cell types and in the progression of tumor cells, co-cultures were performed on fresh blood plasma, immune cell/inflammatory (macrophages) with tumor cells derived from primary tumors. All obtained from the same patient, to build an experimental model similar to human physiology.
Macrophages were obtained from washing or pleural or peritoneal from the same patient from which the primary tumor cells were obtained in each case.

mononuclear cells = assay: Marker expression (immunohistochemistry) in mononuclear blood cells with SP alone or with NK1 antagonists; assay type: cell-based, human; conditions: SP 1 μM + antagonist 1 μM; 48 h
Source text: Briefly, heparinized blood from healthy donors was centrifuged so as to separate the various components thereof. Red blood cells remained at the bottom of the tube. Above them was a small white layer composed of the white blood cells and above, on top of the tube, the blood plasma. The layer of white cells was distributed in a culture plate of 24 wells by adding in each the same concentration of blood plasma from the same donor, supplemented with 1% antibiotic-antimycotic (Invitrogen). In each well, approximately 1000 cells (PHF) skin from the dermis were further added, obtained as previously described in Example 2. […] After 48 hours of incubation, cells were collected and embedded in paraffin for expression analysis by immunohistochemical techniques (as described in Example 1).
The expression of TGF molecular markers (anti-TGF 2, SAB4502956) and NF-kB (anti-NF-kB, SAB4501992) using specific antibodies against them were analyzed. All antibodies used were rabbit polyclonal antibodies obtained from Sigma Aldrich and were used at a concentration of 1/1000. All experiments were carried out sixfold.

[5] = test system: fibroblasts (PHF) co-cultured with tumor cells of human cervix carcinoma (KB); assay: Marker expression (IHC) in PHF co-cultured with KB tumor cells; assay type: cell-based; conditions: co-culture with KB; SP 1 μM + antagonist 1 μM; 48 h;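 note: percentage of PHF fibroblasts showing expression of each marker, cultured in fresh blood plasma from a healthy human donor, six replicates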
Method: as §1

[6] = test system: fibroblasts (PHF) co-cultured with tumor cells of human Burkitt lymphoma (CA-46); assay: Marker expression (IHC) in PHF co-cultured with CA-46 tumor cells; assay type: cell-based; conditions: PHF co-cultured with CA-46 + SP + NK1 antagonist;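 note: percentage of PHF fibroblasts positive for each marker, cultures grown in fresh human plasma from a healthy donor, six replicates, compared with fibroblasts cultured alone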
Method: All cultures were maintained 48 hours, following which the same cells were included in paraffin blocks for subsequent analysis of the expression of different markers by immunohistochemistry (see Example 1). The primary antibodies used to perform immunohistochemical assays and their concentration are detailed in Example 2. All experiments were carried out sixfold. Analyzed markers in fibroblast cells (stromal cells) were: TGF-α, TGF-β1, TGF-β2, TGF-β3, SPARC, MMP-3, MMP-7, MMP-9, MMP-11, MMP-13 and MMP-14.

[7] = test system: fibroblasts (PHF) co-cultured with tumor cells, thyroid carcinoma; assay: Marker expression (IHC) in PHF co-cultured with thyroid carcinoma tumor cells; assay type: cell-based, human; conditions: co-culture with thyroid carcinoma cells; SP 1 μM + antagonist 1 μM; 48 h;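 note: grown in fresh plasma from a healthy human donor, read-out is percent of fibroblasts positive for each marker, compared with fibroblasts cultured alone, run in six replicates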
Method: as §1

[8] = test system: fibroblasts (PHF) co-cultured with tumor cells, thyroid carcinoma (reference A-427); assay: as above; assay type: cell-based, human; conditions: co-culture with thyroid carcinoma cells; SP 1 μM + antagonist 1 μM; 48 h
Method: as §1

[9] = test system: fibroblasts (PHF) co-cultured with tumor cells of human endometrial carcinoma (AN3-CA); assay: Marker expression (IHC) in PHF co-cultured with AN3-CA tumor cells; assay type: cell-based; conditions: co-culture with AN3-CA; SP 1 μM + antagonist 1 μM; 48 h;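 note: cultured in fresh healthy-donor blood plasma with added antibiotic-antimycotic, run in six replicates, values give percent of fibroblasts positive for each marker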
Method: as §1

[10] = test system: fibroblasts (PHF) co-cultured with human melanoma tumor cells (MEL-HO1); assay: Marker expression (IHC) in PHF co-cultured with MEL-HO1 tumor cells; assay type: cell-based; conditions: PHF co-cultured with MEL-HO1 + SP + NK1 antagonist;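 note: values are the percentage of fibroblasts positive for each marker, with cultures grown in fresh healthy-donor blood plasma and each experiment run six times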
Method: as §1

[11] = co-culture with cells isolated from breast carcinoma
[12] = co-culture with cells isolated from colon carcinoma
[13] = co-culture with cells isolated from lung carcinoma
[14] = co-culture with cells isolated from melanoma
[15] = co-culture with cells isolated from ovarian carcinoma

CC(=O)N1CCN([C@H]2CCN(C(=O)N(C)[C@H](C)c3cc(C(F)(F)F)cc(C(F)(F)F)c3)[C@@H](c3ccc(F)cc3C)C2)CC1 [Casopitant]
0%: fibroblasts expressing MMP-7 [1] | fibroblasts expressing MMP-11 [1] | fibroblasts expressing MMP-14 [1] | fibroblasts expressing TGF-α [1] | fibroblasts expressing TGF-β 1 [1] | fibroblasts expressing TGF-β 2 [1] | fibroblasts expressing TGF-β 3 [1] | PHF cells expressing MMP-3 [2] | PHF cells expressing MMP-7 [2] | PHF cells expressing MMP-9 [2] | PHF cells expressing MMP-11 [2] | PHF cells expressing MMP-13 [2] | PHF cells expressing MMP-14 [2] | PHF cells expressing SPARC [2] | PHF cells expressing TGF-α [2] | PHF cells expressing TGF-β1 [2] | PHF cells expressing TGF-β2 [2] | PHF cells expressing TGF-β3 [2] | fibroblasts expressing MMP-7 [3] | fibroblasts expressing MMP-11 [3] | fibroblasts expressing MMP-14 [3] | fibroblasts expressing TGF-α [3] | fibroblasts expressing TGF-β 1 [3] | fibroblasts expressing TGF-β 2 [3] | fibroblasts expressing TGF-β 3 [3] | Percentage of macrophages which expressed EGF [4, 11] | Percentage of macrophages which expressed MMP-9 [4, 11] | Percentage of macrophages which expressed VEGF [4, 11] | Percentage of macrophages which expressed EGF [4, 12] | Percentage of macrophages which expressed MMP-9 [4, 12] | Percentage of macrophages which expressed VEGF [4, 12] | Percentage of macrophages which expressed EGF [4, 13] | Percentage of macrophages which expressed MMP-9 [4, 13] | Percentage of macrophages which expressed VEGF [4, 13] | Percentage of macrophages which expressed EGF [4, 14] | Percentage of macrophages which expressed MMP-9 [4, 14] | Percentage of macrophages which expressed VEGF [4, 14] | Percentage of macrophages which expressed EGF [4, 15] | Percentage of macrophages which expressed MMP-9 [4, 15] | Percentage of macrophages which expressed VEGF [4, 15] | mononuclear cells expressing NF-kB (mononuclear cells) | mononuclear cells expressing TGF-β (mononuclear cells) | PHF cells expressing MMP-3 [5] | PHF cells expressing MMP-7 [5] | PHF cells expressing MMP-9 [5] | PHF cells expressing MMP-11 [5] | PHF cells expressing MMP-13 [5] | PHF cells expressing MMP-14 [5] | PHF cells expressing SPARC [5] | PHF cells expressing TGF-α [5] | PHF cells expressing TGF-β1 [5] | PHF cells expressing TGF-β2 [5] | PHF cells expressing TGF-β3 [5] | cells expressing MMP-3 [6] | cells expressing MMP-7 [6] | cells expressing MMP-9 [6] | cells expressing MMP-11 [6] | cells expressing MMP-13 [6] | cells expressing MMP-14 [6] | cells expressing SPARC [6] | cells expressing TGF-α [6] | cells expressing TGF-β1 [6] | cells expressing TGF-β2 [6] | cells expressing TGF-β3 [6] | PHF cells expressing MMP-11 [7] | PHF cells expressing MMP-3 [8] | PHF cells expressing MMP-7 [8] | PHF cells expressing MMP-9 [8] | PHF cells expressing MMP-13 [8] | PHF cells expressing MMP-14 [8] | PHF cells expressing SPARC [8] | PHF cells expressing TGF-α [8] | PHF cells expressing TGF-β1 [8] | PHF cells expressing TGF-β2 [8] | PHF cells expressing TGF-β3 [8] | PHF cells expressing MMP-3 [9] | PHF cells expressing MMP-7 [9] | PHF cells expressing MMP-9 [9] | PHF cells expressing MMP-11 [9] | PHF cells expressing MMP-13 [9] | PHF cells expressing MMP-14 [9] | PHF cells expressing SPARC [9] | PHF cells expressing TGF-α [9] | PHF cells expressing TGF-β1 [9] | PHF cells expressing TGF-β2 [9] | PHF cells expressing TGF-β3 [9] | cells expressing MMP-3 [10] | cells expressing MMP-7 [10] | cells expressing MMP-9 [10] | cells expressing MMP-11 [10] | cells expressing MMP-13 [10] | cells expressing MMP-14 [10] | cells expressing SPARC [10] | cells expressing TGF-α [10] | cells expressing TGF-β1 [10] | cells expressing TGF-β2 [10] | cells expressing TGF-β3 [10]

— patent US20180071317A1, “USE OF AGENTS THAT ALTER THE PERITUMORAL ENVIRONMENT FOR THE TREATMENT OF CANCER” (SERVICIO ANDALUZ DE SALUD, priority 2011, published 2018)
